According to ChEMBL document CHEMBL3734659, “Identification of tris-(phenylalkyl)amines as new selective h5-HT2Breceptor antagonists” (Medchemcomm, 2015):
The source made the active and inactive calls. No cut-off for these calls is given here.

What was measured:
[1] = target: T1, 5-hydroxytryptamine receptor 2B (Homo sapiens, UniProt P41595); experiment: Displacement of [3H]LSD from human recombinant 5-HT2B receptor stably expressed in HEK cell membrane after 90 mins by scintillation counting method; format: cell membranes, HEK293
T1 sequence (P41595 whole entry): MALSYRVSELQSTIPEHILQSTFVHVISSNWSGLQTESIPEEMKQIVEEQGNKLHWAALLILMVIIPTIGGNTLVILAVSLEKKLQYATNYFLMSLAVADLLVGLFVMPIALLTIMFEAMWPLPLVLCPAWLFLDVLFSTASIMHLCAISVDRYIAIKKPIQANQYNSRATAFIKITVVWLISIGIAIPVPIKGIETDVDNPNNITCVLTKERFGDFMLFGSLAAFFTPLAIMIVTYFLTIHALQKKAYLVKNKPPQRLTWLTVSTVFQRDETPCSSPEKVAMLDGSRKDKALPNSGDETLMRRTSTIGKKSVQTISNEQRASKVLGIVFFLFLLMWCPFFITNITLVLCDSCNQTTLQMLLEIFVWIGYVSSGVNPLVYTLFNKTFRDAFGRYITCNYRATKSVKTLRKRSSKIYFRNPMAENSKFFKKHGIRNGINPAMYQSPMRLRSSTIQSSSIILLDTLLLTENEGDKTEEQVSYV

[2] = target: T2, 5-hydroxytryptamine receptor 2A (Homo sapiens, UniProt P28223); experiment: Displacement of [3H]ketanserin from human recombinant 5-HT2A receptor expressed in HEKT cell membrane at 10 uM after 90 mins by scintillation counting method; format: cell membranes
T2 sequence (P28223 whole entry): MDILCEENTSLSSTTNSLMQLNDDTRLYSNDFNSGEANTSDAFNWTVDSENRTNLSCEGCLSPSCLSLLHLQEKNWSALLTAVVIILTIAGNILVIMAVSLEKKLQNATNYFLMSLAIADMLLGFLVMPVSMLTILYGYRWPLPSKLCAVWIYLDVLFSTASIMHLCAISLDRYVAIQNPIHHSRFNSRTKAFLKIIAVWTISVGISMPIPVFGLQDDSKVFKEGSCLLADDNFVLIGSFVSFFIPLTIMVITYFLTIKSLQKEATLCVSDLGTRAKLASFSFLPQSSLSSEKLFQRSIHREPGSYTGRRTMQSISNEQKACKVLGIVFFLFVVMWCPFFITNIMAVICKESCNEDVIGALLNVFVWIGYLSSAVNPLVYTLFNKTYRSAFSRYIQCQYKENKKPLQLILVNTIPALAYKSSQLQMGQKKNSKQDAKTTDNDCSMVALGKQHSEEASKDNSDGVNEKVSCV

[3] = target: T1, 5-hydroxytryptamine receptor 2B; experiment: Displacement of [3H]LSD from human recombinant 5-HT2B receptor stably expressed in HEK cell membrane at 10 uM after 90 mins by scintillation counting method; format: cell membranes; conditions: HEK293
HEK293 [4] = experiment: Selectivity ratio of Ki for human recombinant 5-HT2C receptor to Ki for human recombinant 5-HT2B receptor stably expressed in HEK cell membrane; format: cell-based
[5] = target: T2, 5-hydroxytryptamine receptor 2A; experiment: Displacement of [3H]ketanserin from human recombinant 5-HT2A receptor expressed in HEKT cell membrane after 90 mins by scintillation counting method; format: cell-based
[6] = target: T3, 5-hydroxytryptamine receptor 2C (Homo sapiens, UniProt P28335); experiment: Displacement of [3H]mesulergine from human recombinant 5-HT2C receptor expressed in Flp-IN HEK cell membrane after 90 mins by scintillation counting method; format: cell membranes, HEK293
T3 sequence (P28335 whole entry): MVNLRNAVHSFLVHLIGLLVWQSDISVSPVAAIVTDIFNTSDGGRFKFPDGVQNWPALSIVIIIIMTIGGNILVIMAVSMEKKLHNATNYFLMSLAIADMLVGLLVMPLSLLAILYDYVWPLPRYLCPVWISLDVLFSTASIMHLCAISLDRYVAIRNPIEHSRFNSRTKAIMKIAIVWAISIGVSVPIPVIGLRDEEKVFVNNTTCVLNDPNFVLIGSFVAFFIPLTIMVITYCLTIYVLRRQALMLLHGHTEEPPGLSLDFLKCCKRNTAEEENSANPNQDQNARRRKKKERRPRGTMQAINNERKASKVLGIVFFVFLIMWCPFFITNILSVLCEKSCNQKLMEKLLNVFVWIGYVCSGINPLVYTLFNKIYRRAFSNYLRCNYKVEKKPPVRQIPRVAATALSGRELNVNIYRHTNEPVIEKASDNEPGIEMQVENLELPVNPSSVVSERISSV

[7] = target: T1, 5-hydroxytryptamine receptor 2B; experiment: Agonist activity at human recombinant 5-HT2B receptor expressed in Flp-In HEK cells preincubated for 10 mins by FLIPR based calcium mobilization assay; format: functional, cell-based; conditions: HEK293
[8] = target: T4, 5-hydroxytryptamine receptor 2C (Homo sapiens) (UniProt P28335); experiment: Displacement of [3H]mesulergine from human recombinant 5-HT2C receptor expressed in Flp-IN HEK cell membrane at 10 uM after 90 mins by scintillation counting method; format: cell membranes; conditions: HEK293
T4 sequence (whole entry): T3 sequence (P28335 whole entry)

HEK293 [9] = experiment: Selectivity ratio of Ki for human recombinant 5-HT2A receptor expressed in HEKT cell membrane to Ki for human recombinant 5-HT2B receptor stably expressed in HEK cells; format: cell-based
[10] = target: T1, 5-hydroxytryptamine receptor 2B; experiment: Antagonist activity at human recombinant 5-HT2B receptor expressed in Flp-In HEK cells at 10 uM in the presence of agonist preincubated for 10 mins by FLIPR based calcium mobilization assay; format: functional, cell-based; conditions: HEK293
[11] = target: T1, 5-hydroxytryptamine receptor 2B; experiment: Antagonist activity at human recombinant 5-HT2B receptor expressed in Flp-In HEK cells in the presence of agonist preincubated for 10 mins by FLIPR based calcium mobilization assay; format: functional, cell-based, HEK293

| Structure (SMILES) | Ki [1] [nM] | inhibition [2] [%] | inhibition [3] [%] | Ratio Ki (HEK293 [4]) | Ki [5] [nM] | Ki ([6]; read-out: Ki) [nM] | Activity [7] | inhibition [8] [%] | Ratio Ki (HEK293 [9]) | Activity [10] | IC50 [11] [µM] | Ki ([6]; hek293) |
| --- | --- | --- | --- | --- | --- | --- | --- | --- | --- | --- | --- | --- |
| COc1cccc(CCCN(CCc2ccc(OC)c(OC)c2)Cc2ccc3c(c2)OCO3)c1 | 59 | > 50 | > 50 | 2 | 1510 | 103 | inactive | > 50 | 26 | inactive |  |  |
| COc1ccc(CCN(CCc2ccccc2)CCc2ccc3c(c2)OCO3)cc1OC | 17 | > 50 | > 50 | 41 | 1470 | 690 | inactive | > 50 | 87 |  | 10 |  |
| COc1ccc(OC)c(CCCN(CCc2ccc(OC)c(OC)c2)CCc2ccc3c(c2)OCO3)c1 | 36 | > 50 | > 50 | 8 | 919 | 273 | inactive | > 50 | 26 |  | 7.94 |  |
| COc1ccccc1CCCN(CCc1ccc(OC)c(OC)c1)CCc1ccc2c(c1)OCO2 | 5.8 | > 50 | > 50 | 21 | 140 | 123 | inactive | > 50 | 24 |  | 10 |  |
| COc1cccc(CCCN(CCc2ccc(OC)c(OC)c2)CCc2ccc3c(c2)OCO3)c1 | 4.6 | > 50 | > 50 | 24 | 200 | 108 | inactive | > 50 | 43 |  | 1.26 |  |
| Cn1ccc2cc3c(cc21)CCN3C(=O)Nc1cccnc1 | 21 |  |  |  |  |  |  |  |  |  |  |  |
| COc1ccc(CCN(CC/C=C\c2ccccc2)Cc2ccc3c(c2)OCO3)cc1OC | 21 | > 50 | > 50 | 12 | 226 | 241 | inactive | > 50 | 11 |  | 6.31 |  |
| COc1ccc(CCN(CCc2ccc3c(c2)OCO3)Cc2ccccc2)cc1OC | 59 | > 50 | > 50 | 19 | 3530 | 1090 | inactive | > 50 | 60 |  |  |  |
| COc1ccc(CCCN(CCc2ccc(OC)c(OC)c2)CCc2ccc3c(c2)OCO3)cc1 | 6.8 | > 50 | > 50 | 30 | 267 | 206 | inactive | > 50 | 39 |  | 3.98 |  |
| Cc1nc2sccn2c(=O)c1CCN1CCC(=C(c2ccc(F)cc2)c2ccc(F)cc2)CC1 [RITANSERIN] |  |  |  |  |  | 1.8 |  |  |  |  |  |  |
| COc1ccc(CCN(CCCc2cc(OC)c(OC)c(OC)c2)Cc2ccc3c(c2)OCO3)cc1OC | 231 | > 50 | > 50 |  | 2230 |  | inactive |  |  |  | 12.6 | Not Active |
| COc1ccc(CCN(CCCc2cc(OC)c(OC)c(OC)c2)CCc2ccc3c(c2)OCO3)cc1OC | 4.1 | > 50 | > 50 | 47 | 146 | 194 | inactive | > 50 | 36 |  | 1.26 |  |
